Tested on: colon inflammation induced by 2,4,6 TNBS
Experiment: Colon-inflammatory model induced by 2,4,6 TNBS in rats
Type: in vivo, Wistar (CD) male rats
Settings: PABD 2 g/kg/day p.o., infliximab 3.0 mg/kg/day, SASP 50 mg/kg/day; for Body weight change (body weight relative to 100% before TNBS): 2,4,6 TNBS 10 mg/rat into colon, evaluated third day, TNBS alone 91.8%; for Seriousness of inflammation (0-11 scale) / Extension of mucous membrane lesions / TNF-α level: 2,4,6 TNBS 10 mg/rat, third day; for Seriousness of inflammation (0-11 scale): TNBS alone 7.6; for Extension of mucous membrane lesions: TNBS alone 60.2%; for TNF-α level: control 12.7, TNBS alone 420.4
Source text: Examination of Anti-Inflammatory Effect in Colon-Inflammatory Model Induced by TNBS in the Case of Rats.
The 2,4,6 Trinitrobenzene-sulphonic-acid (2,4,6 TNBS) induction method represents well the pathological changes typical of patients suffering e.g. from Crohn's disease, so this model is well known and accepted in IBD-studies. The method described in Morris G. P. et al. “Hapten-induced model of chronic inflammation and ulceration in the rat colon” Gastroenterology 1989., 96(3); 795-803 was followed.
Examinations were made in Wistar (CD) male rats. Nr: 10-10/groups.
PABD powder was produced as described in Example 2; DH % of it's protein fraction was 20%.
2,4,6 TNBS=2,4,6 Trinitrobenzene-sulphonic-acid in solution.
During the method 2,4,6 TNBS (10 mg/rat) was introduced after 12 hours starving in aether-anaesthesia into the colon. Inflammation reach the maximum on the third day. The animals were sacrificed by cervalis dislocation and the results were evaluated.

## O=C(O)c1cc(/N=N/c2ccc(S(=O)(=O)Nc3ccccn3)cc2)ccc1O [SASP, Sulfasalazine]
  Body weight change (body weight relative to 100% before TNBS): 100.8%
  Seriousness of inflammation (0-11 scale): 5.8
  Extension of mucous membrane lesions: 39.7%
  TNF-α level: 236.1 pg/mg protein

## Infliximab: biologically active agent used in the treatment of IBD; comparator treatment
  Body weight change (body weight relative to 100% before TNBS): 100.0%
  Seriousness of inflammation (0-11 scale): 5.4
  Extension of mucous membrane lesions: 36.4%
  TNF-α level: 212.0 pg/mg protein
